Assay results from ChEMBL document CHEMBL1201862, “PubChem BioAssay data set” (2004).
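A five-concentration, 48-hour dose response in 96-well plates underlies each endpoint, interpolated linearly between surrounding concentrations. At the GI50, growth is halved.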 Active and inactive are the calls of the source. No stated cut-off is given here; in the data, active = GI50 up to about 1.1 µM and inactive = higher.

How the values were obtained:
Test in all cases: NCI tumour cell line growth inhibition, 48 h
786-0 = test system: 786-0
A498 = test system: A498
A549 = test system: A549
ACHN = test system: ACHN
CAKI-1 = test system: CAKI-1
CCRF-CEM = test system: CCRF-CEM
COLO 205 = test system: COLO 205
DLD-1 = test system: DLD-1
DMS-114 = test system: DMS-114
DMS-273 = test system: DMS-273
EKVX = test system: EKVX
HCC 2998 = test system: HCC 2998
HCT-116 = test system: HCT-116
HCT-15 = test system: HCT-15
HL-60 = test system: HL-60
HOP-18 = test system: HOP-18
HOP-62 = test system: HOP-62
HOP-92 = test system: HOP-92
HT-29 = test system: HT-29
IGROV-1 = test system: IGROV-1
K562 = test system: K562
KM-20L2 = test system: KM-20L2
LOX IMVI = test system: LOX IMVI
LXFL 529 = test system: LXFL 529
M14 = test system: M14
M19-MEL = test system: M19-MEL
MOLT-4 = test system: MOLT-4
NCI-H23 = test system: NCI-H23
NCI-H460 = test system: NCI-H460
OVCAR-3 = test system: OVCAR-3
OVCAR-4 = test system: OVCAR-4
OVCAR-8 = test system: OVCAR-8
RPMI-8226 = test system: RPMI-8226
RXF 393 = test system: RXF 393
SF-295 = test system: SF-295
SF-539 = test system: SF-539
SK-MEL-28 = test system: SK-MEL-28
SK-MEL-5 = test system: SK-MEL-5
SK-OV-3 = test system: SK-OV-3
SN12C = test system: SN12C
SNB-19 = test system: SNB-19
SNB-75 = test system: SNB-75
SNB-78 = test system: SNB-78
SW-620 = test system: SW-620
TK-10 = test system: TK-10
U-251 = test system: U-251
UACC-257 = test system: UACC-257
UACC-62 = test system: UACC-62
XF498 = test system: XF498
BT-549 = test system: BT-549
DU-145 = test system: DU-145
Hs-578T = test system: Hs-578T
KM12 = test system: KM12
MDA-MB-231 = test system: MDA-MB-231
MDA-MB-435 = test system: MDA-MB-435
MDA-N = test system: MDA-N
Malme-3M = test system: Malme-3M
NCI-H226 = test system: NCI-H226
NCI-H522 = test system: NCI-H522
OVCAR-5 = test system: OVCAR-5
PC-3 = test system: PC-3
SF-268 = test system: SF-268
SK-MEL-2 = test system: SK-MEL-2
SR = test system: SR
T47D = test system: T47D
UO-31 = test system: UO-31

Measured: GI50

NC(=O)NCc1c(C(N)=O)ncn1Cc1ccccc1
inactive: 786-0 > 100000 nM | A498 > 100000 nM | A549 > 100000 nM | ACHN > 100000 nM | CAKI-1 > 100000 nM | CCRF-CEM > 100000 nM | COLO 205 > 100000 nM | DLD-1 > 100000 nM | DMS-114 > 100000 nM | DMS-273 > 100000 nM | EKVX > 100000 nM | HCC 2998 > 100000 nM | HCT-116 > 100000 nM | HL-60 > 100000 nM | HOP-18 > 100000 nM | HOP-62 > 100000 nM | HOP-92 > 100000 nM | HT-29 > 100000 nM | IGROV-1 > 100000 nM | K562 > 100000 nM | KM-20L2 > 100000 nM | LOX IMVI > 100000 nM | LXFL 529 > 100000 nM | M14 > 100000 nM | M19-MEL > 100000 nM | MOLT-4 > 100000 nM | NCI-H23 > 100000 nM | NCI-H460 > 100000 nM | OVCAR-3 > 100000 nM | OVCAR-4 > 100000 nM | OVCAR-8 > 100000 nM | RPMI-8226 > 100000 nM | RXF 393 > 100000 nM | SF-295 > 100000 nM | SF-539 > 100000 nM | SK-MEL-28 > 100000 nM | SK-MEL-5 > 100000 nM | SK-OV-3 > 100000 nM | SN12C > 100000 nM | SNB-19 > 100000 nM | SNB-75 > 100000 nM | SNB-78 > 100000 nM | SW-620 > 100000 nM | TK-10 > 100000 nM | U-251 > 100000 nM | UACC-257 > 100000 nM | UACC-62 > 100000 nM | XF498 > 100000 nM
> 100000 nM: HCT-15

COc1cccc2c1C(=O)c1c(O)c3c(c(O)c1C2=O)C[C@@](O)(C(=O)CO)C[C@@H]3OC1CC(N(C)C)C(O)C(C)O1 (stereo partly drawn)
active: 786-0 < 19.7 nM | A498 < 11.6 nM | A549 < 10 nM | ACHN < 10 nM | BT-549 53.7 nM | CAKI-1 < 10 nM | CCRF-CEM 99.1 nM | COLO 205 < 10 nM | DLD-1 < 15.7 nM | DMS-273 < 10.6 nM | DU-145 51.9 nM | EKVX 41.5 nM | HCC 2998 67.5 nM | HCT-116 < 10 nM | HL-60 100 nM | HOP-18 80.5 nM | HOP-62 27.2 nM | HOP-92 31 nM | HT-29 < 10 nM | Hs-578T < 10 nM | IGROV-1 < 10.4 nM | K562 58.3 nM | KM-20L2 36.7 nM | KM12 < 16 nM | LOX IMVI < 10 nM | LXFL 529 < 17.4 nM | M14 30.6 nM | MDA-MB-231 52.8 nM | MDA-MB-435 < 10 nM | MDA-N < 10 nM | MOLT-4 15.9 nM | Malme-3M < 14.2 nM | NCI-H226 < 14.9 nM | NCI-H23 13.7 nM | NCI-H460 < 10 nM | NCI-H522 < 11 nM | OVCAR-3 64.4 nM | OVCAR-4 < 18.9 nM | OVCAR-5 64.3 nM | OVCAR-8 < 25.5 nM | PC-3 < 10 nM | RPMI-8226 < 17.5 nM | RXF 393 13.8 nM | SF-268 < 12.6 nM | SF-295 < 10 nM | SF-539 < 10 nM | SK-MEL-28 22.7 nM | SK-MEL-2 < 21.2 nM | SK-MEL-5 12.9 nM | SK-OV-3 72.8 nM | SN12C 18.9 nM | SNB-19 25.4 nM | SNB-75 15.5 nM | SNB-78 45.3 nM | SR < 10 nM | SW-620 < 10 nM | T47D < 10 nM | TK-10 30.3 nM | U-251 < 13.4 nM | UACC-257 28.5 nM | UACC-62 < 12 nM | UO-31 20.4 nM | XF498 14.9 nM
18.2 nM: HCT-15
